Measured values: publication doi:10.1101/504357v1 (biorxiv, 2018)
Values after ≈ are worked out from the molar mass of the structure shown.

Experiments:
HuDHFR = target: T1, HuDHFR (Homo sapiens, UniProt P00374); test: DHFR inhibition assay; format: biochemical
T1 sequence (P00374 1-187): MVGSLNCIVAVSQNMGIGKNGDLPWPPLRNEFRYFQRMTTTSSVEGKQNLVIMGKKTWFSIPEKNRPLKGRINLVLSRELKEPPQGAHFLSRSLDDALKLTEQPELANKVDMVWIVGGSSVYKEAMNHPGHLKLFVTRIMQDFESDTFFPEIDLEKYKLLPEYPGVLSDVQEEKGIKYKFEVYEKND

S. pyogenes = test: microbe, parasite or virus in culture; design: species or system Streptococcus pyogenes ATCC 19615; details: Streptococcus pyogenes, read-out: MIC (ug/mL)

| Compound | IC50 (HuDHFR) [nM] | MIC (S. pyogenes) [µg/mL] |
| --- | --- | --- |
| CCc1nc(N)nc(N)c1C#C[C@H](C)c1cc2c(c(-c3ccncc3)c1)OCO2 [compound 22] | 85 ± 10 | ≤ 0.039 |
| CCc1nc(N)nc(N)c1C#C[C@H](C)c1cc(-c2cc(C)nc(C)c2)ccc1Cl [compound 9] | 210 ± 18 | ≤ 0.039 |
| CCc1nc(N)nc(N)c1C#C[C@H](C)c1cc(-c2ccncc2)ccc1OC [compound 25] | – | ≤ 0.039 |
| CCc1nc(N)nc(N)c1C#C[C@@H](C)c1cc(-c2ccncc2)ccc1OC [compound 26] | – | ≤ 0.039 |
| CCc1nc(N)nc(N)c1C#CCc1cc(-c2ccc(C(=O)O)cc2)ccc1OC [compound 7] | – | 0.078 (≈ 0.194 µM) |
| CCc1nc(N)nc(N)c1C#CCc1cc(-c2cc(C)nc(C)c2)ccc1OC(F)(F)F [compound 14] | – | 0.625 (≈ 1.42 µM) |
| CCc1nc(N)nc(N)c1C#C[C@H](C)c1cc(-c2cc(C)nc(C)c2)ccc1OC(F)(F)F [compound 12] | – | 0.312 (≈ 0.685 µM) |
| CCc1nc(N)nc(N)c1C#CC(C)c1cc(OC)c(OC)c(-c2ccncc2)c1 (stereo not drawn) [compound 29] | – | ≤ 0.039 |
| CCc1nc(N)nc(N)c1C#CC(C)c1cc2c(c(-c3cc(C)nc(C)c3)c1)OCCO2 (stereo not drawn) [compound 19] | – | ≤ 0.039 |
| CCc1nc(N)nc(N)c1C#C[C@@H](C)c1cc(-c2cc(C)nc(C)c2)ccc1OC(F)(F)F [compound 13] | 167 ± 9 | 0.156 (≈ 0.342 µM) |
| CCc1nc(N)nc(N)c1C#C[C@H](C)c1cc(OC)cc(-c2ccncc2)c1 [compound 28] | – | ≤ 0.039 |
| CCc1nc(N)nc(N)c1C#C[C@@H](C)c1cc(-c2ccc(C(=O)O)cc2)ccc1OC [compound 5] | – | 0.078 (≈ 0.187 µM) |
| CCc1nc(N)nc(N)c1C#C[C@@H](C)c1ccc(OC)c(-c2ccncc2)c1 [compound 23] | 68 ± 7 | ≤ 0.039 |
| CCc1nc(N)nc(N)c1C#C[C@H](C)c1cc(OC)c(OC)c(-c2ccncc2)c1 [compound 30] | – | ≤ 0.039 |
| CCc1nc(N)nc(N)c1C#C[C@@H](C)c1cc2c(c(-c3ccncc3)c1)OCO2 [compound 21] | 191 ± 12 | ≤ 0.039 |
| CCc1nc(N)nc(N)c1C#CC(C)c1cc(O)c(O)c(-c2ccncc2)c1 (stereo not drawn) [compound 32] | – | 0.312 (≈ 0.831 µM) |

| Compound | IC50 (HuDHFR) [nM] | MIC (S. pyogenes) [µg/mL] |
| --- | --- | --- |
| CCc1nc(N)nc(N)c1C#CC(C)c1cc(-c2cc(C)nc(C)c2)ccc1Cl (racemic) [compound 10] | – | 0.312 (≈ 0.769 µM) |
| CCc1nc(N)nc(N)c1C#CCc1cc(OC)cc(-c2ccc(C(=O)O)cc2)c1 [compound 1] | – | ≤ 0.039 |
| CCc1nc(N)nc(N)c1C#CCc1cc(-c2ccccc2C(=O)O)ccc1OC [compound 6] | – | 0.625 (≈ 1.55 µM) |
| CCc1nc(N)nc(N)c1C#C[C@@H](C)c1cc(OC)cc(-c2ccncc2)c1 [compound 27] | – | ≤ 0.039 |
| CCc1nc(N)nc(N)c1C#CC(C)c1cccc(-c2cc(C)nc(C)c2)c1 (stereo not drawn) [compound 18] | – | ≤ 0.039 |
| CCc1nc(N)nc(N)c1C#C[C@H](C)c1ccc(OC)c(-c2ccncc2)c1 [compound 24] | 74 ± 7 | ≤ 0.039 |
| CCc1nc(N)nc(N)c1C#CC(C)c1cc2c(c(-c3ccncc3)c1)OCCO2 (stereo not drawn) [compound 20] | – | ≤ 0.039 |
| CCc1nc(N)nc(N)c1C#CC(C)c1cc(-c2cc(C)nc(C)c2)ccc1OC(F)(F)F (stereo not drawn) [compound 15] | – | 0.312 (≈ 0.685 µM) |
| CCc1nc(N)nc(N)c1C#CC(C)c1cc(-c2ccncc2)cc(F)c1OC (stereo not drawn) [compound 17] | 234 ± 16 | ≤ 0.039 |
| CCc1nc(N)nc(N)c1C#C[C@H](C)c1cc(OC)cc(-c2ccc(C(=O)O)cc2)c1 [compound 3] | – | ≤ 0.039 |
| CCc1nc(N)nc(N)c1C#CC(C)c1cc(F)cc(-c2cc(C)nc(C)c2)c1 (stereo not drawn) [compound 16] | – | ≤ 0.039 |
| CCc1nc(N)nc(N)c1C#CC(C)c1cc(-c2ccncc2)cc2c1OCO2 (stereo not drawn) [compound 31] | – | ≤ 0.039 |
| CCc1nc(N)nc(N)c1C#C[C@@H](C)c1cc(OC)cc(-c2ccc(C(=O)O)cc2)c1 [compound 2] | – | ≤ 0.039 |
| CCc1nc(N)nc(N)c1C#C[C@H](C)c1cc(-c2ccc(C(=O)O)cc2)ccc1OC [compound 4] | – | 0.078 (≈ 0.187 µM) |
| CCc1nc(N)nc(N)c1C#C[C@@H](C)c1cc(-c2cc(C)nc(C)c2)ccc1Cl [compound 11] | 207 ± 13 | 0.625 (≈ 1.54 µM) |
